The record followed here is ChEMBL document CHEMBL3822454, “On the vasoprotective mechanisms underlying novel β-phosphorylated nitrones: Focus on free radical characterization, scavenging and NO-donation in a biological model of oxidative stress” (Eur J Med Chem, 2016).

Sequence of Xanthine dehydrogenase/oxidase (P47989 whole entry): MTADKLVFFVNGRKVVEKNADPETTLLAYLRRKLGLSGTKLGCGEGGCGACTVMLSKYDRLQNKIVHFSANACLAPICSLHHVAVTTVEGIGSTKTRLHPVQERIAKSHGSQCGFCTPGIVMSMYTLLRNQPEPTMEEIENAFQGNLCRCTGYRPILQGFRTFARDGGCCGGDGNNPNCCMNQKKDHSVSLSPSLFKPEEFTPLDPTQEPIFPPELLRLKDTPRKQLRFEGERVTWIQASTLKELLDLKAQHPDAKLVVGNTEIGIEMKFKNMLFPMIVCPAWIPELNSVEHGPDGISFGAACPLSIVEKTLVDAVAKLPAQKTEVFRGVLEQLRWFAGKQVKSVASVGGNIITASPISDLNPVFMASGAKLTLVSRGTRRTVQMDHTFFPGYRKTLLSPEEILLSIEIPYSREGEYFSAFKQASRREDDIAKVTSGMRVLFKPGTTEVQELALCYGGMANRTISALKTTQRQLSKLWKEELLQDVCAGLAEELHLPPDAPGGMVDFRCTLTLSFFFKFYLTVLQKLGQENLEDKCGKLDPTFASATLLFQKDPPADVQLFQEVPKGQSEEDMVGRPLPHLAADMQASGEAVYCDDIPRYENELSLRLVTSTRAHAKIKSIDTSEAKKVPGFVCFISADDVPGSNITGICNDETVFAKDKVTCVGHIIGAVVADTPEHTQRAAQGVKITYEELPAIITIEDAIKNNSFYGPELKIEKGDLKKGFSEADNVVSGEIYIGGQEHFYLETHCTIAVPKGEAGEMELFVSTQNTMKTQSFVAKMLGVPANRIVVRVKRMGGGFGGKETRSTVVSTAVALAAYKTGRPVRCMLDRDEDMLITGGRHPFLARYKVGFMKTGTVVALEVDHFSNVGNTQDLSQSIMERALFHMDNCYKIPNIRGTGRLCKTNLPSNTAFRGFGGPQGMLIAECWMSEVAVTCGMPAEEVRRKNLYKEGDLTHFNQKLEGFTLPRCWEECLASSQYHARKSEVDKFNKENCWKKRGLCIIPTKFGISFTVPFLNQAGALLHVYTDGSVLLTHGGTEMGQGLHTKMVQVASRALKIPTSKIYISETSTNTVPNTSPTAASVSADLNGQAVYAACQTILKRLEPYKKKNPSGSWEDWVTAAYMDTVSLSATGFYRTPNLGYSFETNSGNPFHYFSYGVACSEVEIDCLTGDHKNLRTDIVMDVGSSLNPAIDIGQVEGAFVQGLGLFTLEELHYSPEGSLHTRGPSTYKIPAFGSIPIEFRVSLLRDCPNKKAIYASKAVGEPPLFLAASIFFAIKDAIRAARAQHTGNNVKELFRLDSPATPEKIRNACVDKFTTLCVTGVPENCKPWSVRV

Test system in one series: not listed separately
Kind of series: Cytotoxicity against BAEC assessed as decrease in total intracellular LDH content at 15 mM measured after 1 hr by LDH assay relative to vehicle-treated control. In kind it is cell-based, Bos taurus. On the set-up: scale not given: the % may be the effect or the level left. As to conditions: cattle, 15000 µM; call rule not given here.
As to `CCOP(=O)(OCC)C(C)(C)/[N+]([O-])=C/c1ccc(O)cc1O`, the Activity was below 10%.

As to `CCOP(=O)(OCC)C(C)(C)/[N+]([O-])=C/c1cccc([N+](=O)[O-])c1`, the Activity is below 10%.

A further series concerns Aorta. Kind of series: Toxicity in Sprague-Dawley rat endothelium-intact aortic rings at 15 mM measured after 20 mins. The note with it: 15000 µM.
As to `CCOP(=O)(OCC)C(C)(C)/[N+]([O-])=C/c1ccc(O)cc1O`, the Activity result is given as “Non-toxic”.

Turning to `CCOP(=O)(OCC)C(C)(C)/[N+]([O-])=C/c1cccc([N+](=O)[O-])c1`, the Activity entry is reported as “Non-toxic”.

Test system in the next series: not listed separately
Kind of series: Antioxidant activity assessed as DPPH scavenging activity measured after 3 mins by spectrophotometric method. The class given is physicochemical.
Conditions: not given
Background: Loss of DPPH colour is used to gauge radical scavenging.
Take `O=C(O)c1cc(O)c(O)c(O)c1` [GALLIC ACID]: the EC50 turned out to be 7 µM.

Turning to `O=C(O)/C=C/c1ccc(O)c(O)c1` [CAFFEIC ACID], the EC50 was determined as 17 µM.

On to `O=c1c(O)c(-c2ccc(O)c(O)c2)oc2cc(O)cc(O)c12` [QUERCETIN], for which the EC50 was 13 µM.

As to `CCOC(=O)c1ccc(/C=[N+](\[O-])C(C)(C)P(=O)(OCC)OCC)cc1`, the EC50 is above 1000 µM.

With `CCOP(=O)(OCC)C(C)(C)/[N+]([O-])=C/c1ccc(NC(C)=O)cc1`, the EC50 was above 1000 µM.

For `CCOP(=O)(OCC)C(C)(C)/[N+]([O-])=C/c1ccc(O)cc1O`, the concentration for a half-maximal effect (EC50) was above 1000 µM.

For the molecule `COc1cc(/C=C/C(=O)O)cc(OC)c1O` [SINAPINATE], the half-maximal effective concentration (EC50) amounted to 35 µM.

Take `CCOP(=O)(OCC)C(C)(C)/[N+]([O-])=C/c1cccc([N+](=O)[O-])c1`: the 50% effective concentration (EC50) was above 1000 µM.

In the case of `COc1cc(/C=C/C(=O)O)ccc1O` [FERULATE], the concentration for a half-maximal effect (EC50) came to 61 µM.

As for `Cc1c(C)c2c(c(C)c1O)CCC(C)(C(=O)O)O2` (stereo unspecified) [TROLOX], the EC50 amounted to 20 µM.

Turning to `CCOP(=O)(OCC)C(C)(C)/[N+]([O-])=C/c1ccc(C(=O)O)cc1`, the EC50 is above 1000 µM.

Test system in another series: not listed separately
In words: Antioxidant activity assessed as AAPH free radical scavenging activity measured as trolox equivalent by TRAP assay. In kind it is physicochemical.
Conditions: not given
Turning to `O=C(O)c1cc(O)c(O)c(O)c1` [GALLIC ACID], the Activity was 1.18 equiv.

On to `O=C(O)/C=C/c1ccc(O)c(O)c1` [CAFFEIC ACID], for which the Activity is 2.73 equiv.

`O=c1c(O)c(-c2ccc(O)c(O)c2)oc2cc(O)cc(O)c12` [QUERCETIN]: the Activity amounted to 6.28 equiv.

Regarding `CCOC(=O)c1ccc(/C=[N+](\[O-])C(C)(C)P(=O)(OCC)OCC)cc1`, the Activity is on record as 0.16 equiv.

As to `CCOP(=O)(OCC)C(C)(C)/[N+]([O-])=C/c1ccc(NC(C)=O)cc1`, the Activity is reported as 0.02 equiv.

In the case of `CCOP(=O)(OCC)C(C)(C)/[N+]([O-])=C/c1ccc(O)cc1O`, the Activity stood at 1.61 equiv.

As to `COc1cc(/C=C/C(=O)O)cc(OC)c1O` [SINAPINATE], the Activity came to 1.64 equiv.

For the molecule `CCOP(=O)(OCC)C(C)(C)/[N+]([O-])=C/c1cccc([N+](=O)[O-])c1`, the Activity amounted to 0.02 equiv.

In the case of `COc1cc(/C=C/C(=O)O)ccc1O` [FERULATE], the Activity was found to be 2.16 equiv.

Turning to `CCOP(=O)(OCC)C(C)(C)/[N+]([O-])=C/c1ccc(C(=O)O)cc1`, the Activity is recorded as 0.02 equiv.

Test system in the next series: not listed separately
Kind of series: Antioxidant activity assessed as inhibition of […]-xanthine oxidase system-mediated superoxide formation measured over 7 mins by lucigenin-based chemiluminescence analysis. The class given is physicochemical.
Conditions: not given
Take `O=C(O)c1cc(O)c(O)c(O)c1` [GALLIC ACID]: the IC50 was found to be 0.7 µM.

In the case of `O=C(O)/C=C/c1ccc(O)c(O)c1` [CAFFEIC ACID], the IC50 worked out at 0.1 µM.

Consider `O=c1c(O)c(-c2ccc(O)c(O)c2)oc2cc(O)cc(O)c12` [QUERCETIN], for which the half-maximal inhibitory concentration (IC50) was 0.5 µM.

Turning to `CCOC(=O)c1ccc(/C=[N+](\[O-])C(C)(C)P(=O)(OCC)OCC)cc1`, the IC50 was 6.8 µM.

Turning to `CCOP(=O)(OCC)C(C)NC(C)(C)C` (stereo unspecified), the IC50 was above 40000 µM.

As for `CCOP(=O)(OCC)C(C)(C)/[N+]([O-])=C/c1ccc(NC(C)=O)cc1`, the IC50 was determined as 26.3 µM.

For `CCOP(=O)(OCC)C(C)(C)/[N+]([O-])=C/c1ccc(O)cc1O`, the IC50 came out at 43.3 µM.

Turning to `COc1cc(/C=C/C(=O)O)cc(OC)c1O` [SINAPINATE], the IC50 turned out to be 22.4 µM.

Turning to `CCOP(=O)(OCC)C(C)(C)/[N+]([O-])=C/c1cccc([N+](=O)[O-])c1`, the IC50 is 52.3 µM.

As to `COc1cc(/C=C/C(=O)O)ccc1O` [FERULATE], the IC50 is 34.9 µM.

Take `Cc1c(C)c2c(c(C)c1O)CCC(C)(C(=O)O)O2` (stereo unspecified) [TROLOX]: the IC50 was found to be 13.3 µM.

Consider `CCOP(=O)(OCC)C(C)(C)/[N+]([O-])=C/c1ccc(C(=O)O)cc1`, for which the IC50 is 4.1 µM.

Another series addresses Xanthine dehydrogenase/oxidase (Homo sapiens, UniProt P47989). Kind of series: Inhibition of xanthine oxidase (unknown origin) using xanthine as substrate assessed as inhibition of uric acid formation at 1 to 100 uM after 30 mins by spectrophotometric method. As to conditions: 0.5 h.
Regarding `CCOC(=O)c1ccc(/C=[N+](\[O-])C(C)(C)P(=O)(OCC)OCC)cc1`, the “inhibition (INH)” value is “Not Active”.

For the molecule `CCOP(=O)(OCC)C(C)(C)/[N+]([O-])=C/c1ccc(NC(C)=O)cc1`, the “inhibition (INH)” value is “Not Active”.

For the molecule `CCOP(=O)(OCC)C(C)(C)/[N+]([O-])=C/c1ccc(O)cc1O`, the “inhibition (INH)” value was “Not Active”.

`CCOP(=O)(OCC)C(C)(C)/[N+]([O-])=C/c1cccc([N+](=O)[O-])c1`: the “inhibition (INH)” value is “Not Active”.

Turning to `CCOP(=O)(OCC)C(C)(C)/[N+]([O-])=C/c1ccc(C(=O)O)cc1`, the “inhibition (INH)” value is reported as “Not Active”.

A further series has as its system A549. In words: Cytotoxicity against human A549 cells assessed as reduction in cell viability measured after 48 hrs by FMCA assay. The class given is cell-based. The note with it: A549, 48 h.
As for `O=C(O)c1cc(O)c(O)c(O)c1` [GALLIC ACID], the IC50 turned out to be 400 µM.

Turning to `O=C(O)/C=C/c1ccc(O)c(O)c1` [CAFFEIC ACID], the 50% inhibitory concentration (IC50) turned out to be 500 µM.

With `CCOC(=O)c1ccc(/C=[N+](\[O-])C(C)(C)P(=O)(OCC)OCC)cc1`, the IC50 came to 4500 µM.

For `COc1cc(/C=C/C(=O)O)cc(OC)c1O` [SINAPINATE], the IC50 came out at 4600 µM.

For `COc1cc(/C=C/C(=O)O)ccc1O` [FERULATE], the IC50 came to 2600 µM.

Regarding `CCOP(=O)(OCC)C(C)(C)/[N+]([O-])=C/c1ccc(C(=O)O)cc1`, the IC50 is 7900 µM.

The subject of the next series is A549. In words: Cytotoxicity against human A549 cells assessed as reduction in cell viability measured after 48 hrs by luminescence-based ATP assay. As to conditions: A549, 48 h.
On to `O=C(O)c1cc(O)c(O)c(O)c1` [GALLIC ACID], for which the IC50 was determined as 400 µM.

As for `O=C(O)/C=C/c1ccc(O)c(O)c1` [CAFFEIC ACID], the IC50 was determined as 700 µM.

For the molecule `CCOC(=O)c1ccc(/C=[N+](\[O-])C(C)(C)P(=O)(OCC)OCC)cc1`, the 50% inhibitory concentration (IC50) stood at 3600 µM.

For the molecule `COc1cc(/C=C/C(=O)O)cc(OC)c1O` [SINAPINATE], the IC50 amounted to 5700 µM.

As for `COc1cc(/C=C/C(=O)O)ccc1O` [FERULATE], the IC50 was 3200 µM.

Take `CCOP(=O)(OCC)C(C)(C)/[N+]([O-])=C/c1ccc(C(=O)O)cc1`: the IC50 is 8200 µM.

The next series deals with A549. In words: Cytotoxicity against human A549 cells assessed as reduction in cell viability measured after 48 hrs by MTT assay. In kind it is cell-based. As to conditions: A549, 48 h. Background: Tetrazolium dyes change colour on reduction, which living cells bring about.
As for `O=C(O)c1cc(O)c(O)c(O)c1` [GALLIC ACID], the IC50 is 400 µM.

As for `O=C(O)/C=C/c1ccc(O)c(O)c1` [CAFFEIC ACID], the IC50 was found to be 700 µM.

In the case of `CCOC(=O)c1ccc(/C=[N+](\[O-])C(C)(C)P(=O)(OCC)OCC)cc1`, the 50% inhibitory concentration (IC50) amounted to 3500 µM.

In the case of `COc1cc(/C=C/C(=O)O)cc(OC)c1O` [SINAPINATE], the half-maximal inhibitory concentration (IC50) is 4900 µM.

As for `COc1cc(/C=C/C(=O)O)ccc1O` [FERULATE], the concentration for half-maximal inhibition (IC50) was found to be 3100 µM.

As for `CCOP(=O)(OCC)C(C)(C)/[N+]([O-])=C/c1ccc(C(=O)O)cc1`, the IC50 worked out at 7300 µM.

Test system in the next series: not listed separately
In words: Cytotoxicity against BAEC assessed as reduction in cell viability measured after 24 hrs by MTT assay. On the set-up: species or system Bos taurus. The note with it: cattle.
On to `O=C(O)c1cc(O)c(O)c(O)c1` [GALLIC ACID], for which the IC10 is below 100 µM.

As to `O=C(O)/C=C/c1ccc(O)c(O)c1` [CAFFEIC ACID], the IC10 was determined as 200 µM.

With `CCOC(=O)c1ccc(/C=[N+](\[O-])C(C)(C)P(=O)(OCC)OCC)cc1`, the IC10 was determined as 400 µM.

For `COc1cc(/C=C/C(=O)O)cc(OC)c1O` [SINAPINATE], the IC10 was 1200 µM.

On to `COc1cc(/C=C/C(=O)O)ccc1O` [FERULATE], for which the IC10 amounted to 800 µM.

In the case of `CCOP(=O)(OCC)C(C)(C)/[N+]([O-])=C/c1ccc(C(=O)O)cc1`, the concentration for an effect of 10% (IC10) stood at 1300 µM.

In general, EC50 refers to the midpoint of the concentration-response curve. One may read the IC50 as the concentration needed to halve the response being measured. One may read the IC10 as the concentration needed for an effect of 10%.
